How the values were obtained:
CYR2C8 = CYR2C8 (Homo sapiens, UniProt P10632); experiment: Cytochrome P450 inhibition assay; format: in vitro ADME; conditions: 50 uM
CYP1A2 = CYP1A2 (Homo sapiens, UniProt P05177); experiment: Cytochrome P450 inhibition assay; format: in vitro ADME; conditions: 50 uM
CDK8/cyclin C = CDK8/cyclin C (Homo sapiens, UniProt P49336); experiment: SelectScreen kinase profiling, IC50; format: biochemical; conditions: read-out: IC50 against CDK8/cyclin C
Description: (§1) MK256 was synthesized in house. The kinase profiling of MK256 against various targets was done using the SelectScreen Kinase Profiling Services provided by ThermoFisher Scientific (Walham WA, USA). https://www.thermofisher.com/us/en/home/products-and-services/services/custom-services/screening-and-profiling-services/selectscreen-profiling-service/selectscreen-kinase-profiling-service.html.

CDK19/cyclin C = CDK19/cyclin C (Homo sapiens, UniProt Q9BWU1); experiment: SelectScreen kinase profiling, IC50; format: biochemical; conditions: read-out: IC50 against CDK19/cyclin C
Description: as §1

CDK9 = CDK9 (Homo sapiens, UniProt P50750); experiment: SelectScreen kinase profiling, IC50; format: biochemical
Description: as §1

CYP2D6 = CYP2D6 (Homo sapiens, UniProt P10635); experiment: Cytochrome P450 inhibition assay; format: in vitro ADME; conditions: 50 uM
MCL-1 mRNA in KG-1 cells = experiment: Real-time RT-PCR of MCL-1 mRNA; format: cell-based
Description: (§2) Total RNA from the various cell lines was isolated using the RNeasy extraction method (Qiagen, Valencia, CA, USA). First-strand cDNA was synthesized from total RNA by iScript cDNA synthesis (Bio-Rad, Hercules, CA, USA) according to the manufacturer’s instructions. Taqman RT–PCR analysis was performed on cDNA in a 384-well plate, using a Prism 7900HT Real-Time PCR System (Applied Biosystems, Foster City, CA, USA). Primers and Taqman probes were purchased from Applied Biosystems. The expression of target genes MCL1 (Hs03043899_m1, Thermo fisher) and CCL2 (Hs00234140_m1, Thermo fisher) in each sample was assayed in triplicate and normalized to human GUSB for mRNA expression analysis. An unpaired t test was used to calculate statistical significance.

[1] = system: MCL-1 mRNA in MOLM-14 cells; experiment: Real-time RT-PCR of MCL-1 mRNA; format: cell-based
Description: as §2

CYP2C19 = CYP2C19 (Homo sapiens, UniProt P33261); experiment: Cytochrome P450 inhibition assay; format: in vitro ADME; conditions: 50 uM
CYP2C9 = CYP2C9 (Homo sapiens, UniProt P11712); experiment: Cytochrome P450 inhibition assay; format: in vitro ADME; conditions: 50 uM
[2] = system: p-STATs, MCL-1, BCL-2, cleaved Parp, cleaved Caspase 3 in MOLM-14 cells; experiment: Western blot of STAT pathway and apoptosis markers in MOLM-14 cells; format: cell-based; parameters: targeted p-STATs and MCL-1 levels / expression of BCL-2: dose or concentration left out as unconfirmed
Description: For the in vitro western blot study, MV-4-11 and MOLM-14 cells were plated (6-well) at 5 × 10^5 cells per well with medium containing 1% FBS overnight. MK-256 was added in different concentrations at different time points. […] Total protein concentration was measured using the Pierce BCA protein Assay Kit (23227, Thermo Fisher Scientific). Proteins were separated on SDS-PAGE and transferred to Nitrocellulose membrane.

MDCK-MDR1 cells = experiment: MDCK-MDR1 permeability assay; format: in vitro ADME; conditions: 5 μM
Description: MDCK-MDR1 cells were plated into 96-well Millipore Millicell-96 plates at 7,500 cells/75 μL/well and incubated for three days at 37°C with 5% CO2. Cells were washed with Hank’s Balanced Salt Solution (HBSS) with 5 mM HEPES for 30 minutes before the experiment began. MK256 was prepared by diluting DMSO stock into HBSS buffer, resulting in a final DMSO concentration of 0.1%. Prior to the experiment, cell monolayer integrity was verified by […] electrical resistance (TEER). The transport experiment was initiated by adding MK256 to the apical (75 μL) or basal (250 μL) side. Transport plates were incubated at 37°C in a humidified incubator with 5% CO2. Samples were taken from the donor and acceptor compartments after one hour and analyzed by liquid chromatography with tandem mass spectrometry (LC/MS/MS). Digoxin was used as reference control. Apparent permeability (Papp) values were calculated using the following equation: Papp = (dQ/dt)/A/C0, where dQ/dt is the initial rate of amount of test compound transported across the cell monolayer, A is the surface area of the filter membrane, and C0 is the initial concentration of the test compound, calculated for each direction using a 4-point calibration curve by LC/MS/MS. Net flux ratio between the two directional transports was calculated by the following equation: Ratio = Papp, B-A/Papp, A-B, where Papp, B-A and Papp, A-B represent the apparent permeability of test compound from the basal-to-apical and apical-to-basal side of the cellular monolayer, respectively. Recovery was calculated based on the compound concentration at the end of the experiment, compared to that at the beginning of the experiment, adjusted for volumes.

In vivo mouse PK study = experiment: In vivo mouse PK study; parameters: species or system mice; conditions: plasma
Description: Mice were dosed with either 1 mg/ml (IV) at a dose of 3 mg/kg or 3 mg/ml (PO) at a dose of 30 mg/kg in 40% PEG400 + 60% (30% Solutol) (final pH ~ 7). Blood samples were drawn at 5 mins, 15 mins, 30 mins, 1 hr, 2 hrs, 4 hrs, 8 hrs, and 24 hs from mice dosed with the IV route and at 1 hr, 4 hrs, 8 hrs and 24 hrs from mice dosed orally. An aliquot of 30 μL of plasma was extracted with 100 μL of 5:95 methanol:acetonitrile containing internal standard (Verapamil). The mixture was vortexed on a shaker for 15 minutes and subsequently centrifuged at 4000 rpm for 15 minutes. An aliquot of 70 μL of the supernatant was mixed with 70 μL water with 0.1% formic acid for the injection to the LC/MS/MS. Calibration standards were prepared by spiking MK256 into the blank mouse plasma. All samples are analyzed on LC/MS/MS using an AB Sciex API 4000 instrument, coupled to a Shimadzu LC-20AD LC Pump system.

CYP3A4-MDZ = CYP3A4-MDZ (Homo sapiens, UniProt P08684); experiment: Cytochrome P450 inhibition assay; format: in vitro ADME; conditions: 50 uM
[3] = IV 3 mg/kg or PO 30 mg/kg study, footnote 2 not given

CDK9, sequence (P50750 whole entry): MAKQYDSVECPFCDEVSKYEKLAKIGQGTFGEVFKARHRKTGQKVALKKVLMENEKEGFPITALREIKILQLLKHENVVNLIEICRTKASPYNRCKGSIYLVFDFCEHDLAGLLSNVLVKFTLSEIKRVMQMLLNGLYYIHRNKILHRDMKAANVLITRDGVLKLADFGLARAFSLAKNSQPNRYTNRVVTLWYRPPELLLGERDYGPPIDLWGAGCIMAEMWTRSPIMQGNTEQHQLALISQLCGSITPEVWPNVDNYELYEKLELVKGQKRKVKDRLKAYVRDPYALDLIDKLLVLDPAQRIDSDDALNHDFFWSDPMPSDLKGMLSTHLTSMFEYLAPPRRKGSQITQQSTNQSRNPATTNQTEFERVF
CDK9, sequence (O60563 whole entry partner): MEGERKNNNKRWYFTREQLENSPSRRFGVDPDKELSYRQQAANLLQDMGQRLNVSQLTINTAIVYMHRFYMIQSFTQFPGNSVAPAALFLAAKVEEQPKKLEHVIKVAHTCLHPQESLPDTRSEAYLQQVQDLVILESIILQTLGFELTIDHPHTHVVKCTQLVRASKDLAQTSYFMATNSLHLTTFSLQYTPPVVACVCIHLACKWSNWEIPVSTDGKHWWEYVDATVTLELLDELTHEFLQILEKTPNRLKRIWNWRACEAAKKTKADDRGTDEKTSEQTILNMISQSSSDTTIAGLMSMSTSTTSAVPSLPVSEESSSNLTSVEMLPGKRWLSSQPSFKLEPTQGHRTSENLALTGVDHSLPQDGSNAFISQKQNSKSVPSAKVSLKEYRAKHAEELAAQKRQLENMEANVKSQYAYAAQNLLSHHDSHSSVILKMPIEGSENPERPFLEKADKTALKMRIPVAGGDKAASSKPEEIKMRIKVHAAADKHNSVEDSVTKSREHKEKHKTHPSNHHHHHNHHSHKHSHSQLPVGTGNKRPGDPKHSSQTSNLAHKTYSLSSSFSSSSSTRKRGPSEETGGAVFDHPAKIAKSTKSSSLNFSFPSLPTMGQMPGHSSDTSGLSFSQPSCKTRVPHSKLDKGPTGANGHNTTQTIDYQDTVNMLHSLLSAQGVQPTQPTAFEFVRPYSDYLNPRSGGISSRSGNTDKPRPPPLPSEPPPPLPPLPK
CYR2C8, sequence (P10632 whole entry): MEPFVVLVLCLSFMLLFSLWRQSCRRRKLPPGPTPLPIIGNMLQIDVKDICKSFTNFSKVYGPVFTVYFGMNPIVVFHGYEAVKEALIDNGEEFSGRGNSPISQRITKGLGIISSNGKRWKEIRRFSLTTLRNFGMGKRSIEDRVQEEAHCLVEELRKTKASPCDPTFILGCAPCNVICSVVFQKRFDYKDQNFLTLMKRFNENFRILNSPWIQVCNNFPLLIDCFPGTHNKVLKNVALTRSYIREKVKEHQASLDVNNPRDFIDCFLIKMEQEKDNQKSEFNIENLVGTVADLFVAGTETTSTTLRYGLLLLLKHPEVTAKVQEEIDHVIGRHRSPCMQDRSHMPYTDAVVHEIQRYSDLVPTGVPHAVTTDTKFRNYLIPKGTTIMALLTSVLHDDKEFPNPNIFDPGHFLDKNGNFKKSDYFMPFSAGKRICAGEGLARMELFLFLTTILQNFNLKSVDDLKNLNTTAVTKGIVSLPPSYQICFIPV
CYP2D6, sequence (P10635 whole entry): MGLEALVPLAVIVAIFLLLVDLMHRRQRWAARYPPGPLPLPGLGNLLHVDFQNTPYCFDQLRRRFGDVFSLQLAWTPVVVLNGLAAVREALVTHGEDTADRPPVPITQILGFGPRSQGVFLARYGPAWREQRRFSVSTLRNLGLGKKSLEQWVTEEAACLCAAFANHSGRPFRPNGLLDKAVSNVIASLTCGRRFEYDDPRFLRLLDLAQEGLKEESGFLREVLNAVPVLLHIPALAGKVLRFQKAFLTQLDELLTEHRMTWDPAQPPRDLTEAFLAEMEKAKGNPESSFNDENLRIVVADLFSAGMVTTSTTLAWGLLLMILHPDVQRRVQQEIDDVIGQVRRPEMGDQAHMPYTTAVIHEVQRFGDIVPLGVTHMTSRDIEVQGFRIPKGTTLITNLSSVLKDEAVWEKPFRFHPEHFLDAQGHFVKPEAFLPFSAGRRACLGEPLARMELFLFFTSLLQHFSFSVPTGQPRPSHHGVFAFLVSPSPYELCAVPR
CDK8/cyclin C, sequence (P49336 whole entry): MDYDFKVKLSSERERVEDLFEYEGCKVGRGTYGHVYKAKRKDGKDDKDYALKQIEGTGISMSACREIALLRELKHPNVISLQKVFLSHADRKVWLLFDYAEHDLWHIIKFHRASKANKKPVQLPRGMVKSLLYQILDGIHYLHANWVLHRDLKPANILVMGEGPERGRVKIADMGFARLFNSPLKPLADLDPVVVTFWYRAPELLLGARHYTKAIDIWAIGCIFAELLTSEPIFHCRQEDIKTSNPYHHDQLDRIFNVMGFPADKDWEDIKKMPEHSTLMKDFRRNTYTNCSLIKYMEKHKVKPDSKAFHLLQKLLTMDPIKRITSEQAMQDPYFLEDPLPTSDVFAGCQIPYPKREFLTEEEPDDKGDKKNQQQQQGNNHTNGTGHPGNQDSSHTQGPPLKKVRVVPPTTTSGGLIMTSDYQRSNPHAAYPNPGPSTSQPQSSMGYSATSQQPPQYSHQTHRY
CDK8/cyclin C, sequence (P24863 whole entry partner): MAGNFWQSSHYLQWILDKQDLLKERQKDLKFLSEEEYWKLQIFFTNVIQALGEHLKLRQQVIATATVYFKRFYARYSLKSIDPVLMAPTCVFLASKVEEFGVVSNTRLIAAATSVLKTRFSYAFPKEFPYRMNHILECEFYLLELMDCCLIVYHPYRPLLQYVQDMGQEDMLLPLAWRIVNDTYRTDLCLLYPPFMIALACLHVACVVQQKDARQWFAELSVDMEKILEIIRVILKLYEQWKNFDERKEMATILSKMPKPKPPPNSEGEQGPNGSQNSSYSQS
CYP2C9, sequence (P11712 whole entry): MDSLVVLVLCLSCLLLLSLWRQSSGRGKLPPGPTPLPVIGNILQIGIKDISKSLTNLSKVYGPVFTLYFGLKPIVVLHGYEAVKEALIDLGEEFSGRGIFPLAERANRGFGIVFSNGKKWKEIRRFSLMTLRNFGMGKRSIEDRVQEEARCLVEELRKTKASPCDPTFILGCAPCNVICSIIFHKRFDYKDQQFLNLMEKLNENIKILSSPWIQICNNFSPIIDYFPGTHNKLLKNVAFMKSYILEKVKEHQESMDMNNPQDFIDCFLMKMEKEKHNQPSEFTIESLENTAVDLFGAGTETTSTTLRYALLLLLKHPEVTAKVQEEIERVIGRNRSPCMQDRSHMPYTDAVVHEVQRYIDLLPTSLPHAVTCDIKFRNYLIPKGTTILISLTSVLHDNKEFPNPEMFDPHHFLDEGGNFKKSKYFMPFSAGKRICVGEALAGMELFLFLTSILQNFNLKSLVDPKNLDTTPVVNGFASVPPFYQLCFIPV
CYP2C19, sequence (P33261 whole entry): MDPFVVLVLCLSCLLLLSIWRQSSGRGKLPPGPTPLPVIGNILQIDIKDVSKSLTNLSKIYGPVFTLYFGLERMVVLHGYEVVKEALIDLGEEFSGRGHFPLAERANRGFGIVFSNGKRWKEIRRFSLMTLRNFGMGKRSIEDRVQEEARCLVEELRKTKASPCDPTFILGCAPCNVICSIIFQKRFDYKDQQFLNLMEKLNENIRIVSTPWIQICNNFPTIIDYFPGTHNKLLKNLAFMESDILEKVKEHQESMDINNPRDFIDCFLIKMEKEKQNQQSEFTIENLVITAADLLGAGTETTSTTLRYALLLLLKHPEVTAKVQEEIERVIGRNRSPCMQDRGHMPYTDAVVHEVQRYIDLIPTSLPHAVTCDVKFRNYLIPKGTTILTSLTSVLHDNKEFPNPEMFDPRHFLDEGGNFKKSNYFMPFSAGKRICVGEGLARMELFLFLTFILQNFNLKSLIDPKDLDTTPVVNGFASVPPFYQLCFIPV
CDK19/cyclin C, sequence (Q9BWU1 whole entry): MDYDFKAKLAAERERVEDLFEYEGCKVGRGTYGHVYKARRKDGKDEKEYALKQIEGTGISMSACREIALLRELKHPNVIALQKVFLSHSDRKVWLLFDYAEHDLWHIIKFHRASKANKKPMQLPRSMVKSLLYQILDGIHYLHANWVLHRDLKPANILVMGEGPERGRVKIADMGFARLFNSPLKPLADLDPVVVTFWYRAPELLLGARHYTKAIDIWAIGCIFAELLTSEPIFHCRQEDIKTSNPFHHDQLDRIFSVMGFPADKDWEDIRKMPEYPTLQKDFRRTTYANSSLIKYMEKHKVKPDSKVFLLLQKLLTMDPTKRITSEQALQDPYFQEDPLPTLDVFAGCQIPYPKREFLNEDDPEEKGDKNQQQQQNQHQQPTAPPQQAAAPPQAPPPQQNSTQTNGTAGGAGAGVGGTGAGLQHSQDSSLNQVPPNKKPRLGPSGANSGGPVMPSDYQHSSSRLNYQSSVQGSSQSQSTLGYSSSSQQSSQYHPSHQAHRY
CDK19/cyclin C, sequence (P24863 whole entry partner): as the sequence (P24863 whole entry partner) above
CYP3A4-MDZ, sequence (P08684 whole entry): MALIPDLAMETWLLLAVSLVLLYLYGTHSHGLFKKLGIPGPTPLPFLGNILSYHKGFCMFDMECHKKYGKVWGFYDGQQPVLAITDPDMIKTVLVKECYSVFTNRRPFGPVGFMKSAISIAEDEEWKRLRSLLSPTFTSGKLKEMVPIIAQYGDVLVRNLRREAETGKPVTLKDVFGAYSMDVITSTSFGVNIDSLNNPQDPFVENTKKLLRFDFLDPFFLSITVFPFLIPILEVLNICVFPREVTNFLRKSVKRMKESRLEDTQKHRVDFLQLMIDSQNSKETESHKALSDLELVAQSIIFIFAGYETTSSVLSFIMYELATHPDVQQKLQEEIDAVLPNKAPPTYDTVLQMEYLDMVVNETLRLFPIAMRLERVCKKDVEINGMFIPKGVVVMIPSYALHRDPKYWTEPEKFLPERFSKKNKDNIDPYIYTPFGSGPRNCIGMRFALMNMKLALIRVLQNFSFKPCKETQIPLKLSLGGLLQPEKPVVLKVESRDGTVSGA

Nc1nccc2c(Br)cc3cc(C(=O)O)ccc3c12 [MK256]
cytochrome P450 inhibition (CYR2C8): no inhibition | cytochrome P450 inhibition (CYP1A2): no inhibition | IC50 (CDK8/cyclin C): 2.5 nM | IC50 (CDK19/cyclin C): 3.3 nM | fold reduction of activity against CDK9 in comparison to CDK8 (CDK9; CDK9 IC50 vs CDK8 IC50): approximately 40 fold | IC50 (CDK9; read-out: IC50 against CDK9): 105 nM | cytochrome P450 inhibition (CYP2D6): no inhibition | mRNA level decreased to (MCL-1 mRNA in KG-1 cells; 300 nM): 25% | mRNA level decreased to (MCL-1 mRNA in KG-1 cells; 1 uM): 30% | MCL-1 mRNA level ([1]; 300 nM): barely changed | MCL-1 mRNA level downregulated by ([1]; 1 uM): ~ 30% | cytochrome P450 inhibition (CYP2C19): no inhibition | cytochrome P450 inhibition (CYP2C9): no inhibition | levels of cleaved Parp and cleaved Caspase 3 ([2]; 30 nM to 3 mM, 48 hr): dose-dependent upregulation | p-levels of STATs, time course ([2]; 300 nM, 4 hrs and 24 hrs): further downregulated in a time-dependent manner | p-STAT1 (S727), p-STAT3(S727), p-STAT5(S726) levels ([2]; 2-hrs, various concentrations): dose-dependent inhibitions | MCL-1 level ([2]; 2 hrs): downregulated | expression of BCL-2 ([2]; 48 hr): unexpected upregulation | targeted p-STATs and MCL-1 levels ([2]; 48 hr): dose-dependent inhibition | Recover rate (%) (MDCK-MDR1 cells): 96% | AUC(0-t) (In vivo mouse PK study; [3]): 330 µM·h | Cmax (In vivo mouse PK study; [3]): 29 µM | half-life (In vivo mouse PK study; [3]): 3.6 h | bioavailability (In vivo mouse PK study; PO 30 mg/kg vs IV 3 mg/kg): 59% | clearance (In vivo mouse PK study; intravenous, 3 mg/kg): 2.83 mL/min/kg | Vd (In vivo mouse PK study; intravenous, 3 mg/kg, read-out: Vss): 0.49 L/kg | cytochrome P450 inhibition (CYP3A4-MDZ): no inhibition

— PMC9629815, “MK256 is a novel CDK8 inhibitor with potent antitumor activity in AML through downregulation of the STAT pathway” (Oncotarget, 2022)
